Where two headings read alike, the source gives them in different places.

The text below walks through data of patent US20140142168A1, “METHODS AND PHARMACEUTICAL COMPOSITIONS FOR THE TREATMENT OF HORMONE-REFRACTORY PROSTATE CANCERS” (CENTRE JEAN PERRIN, priority 2011, published 2014).

One data set deals with patients with HRPC. The settings on record: docetaxel-treated patients, reference randomized study; cited from earlier work.
In a further data set the test system is PC3 cells. Nature of the data set: PC3 survival at end of treatment. It is filed as cell-based, human. The settings on record: 2 h 3.75 μM DTX then 70 h drug-free medium, with or without 2 days of repeated 0.25 μM curcumin pretreatment. The protocol: The PC3 line is a human p-53 defective HRPC line displaying high SphK1 activity. To mimic the effect of treatment, 10,000 PC3 cells were seeded in each well of 24-well plates and maintained in DMEM containing 10% FBS (complete medium) overnight. […] Indeed, in these experiences PC3 cells were treated the first day for 2 h at 7 h AM and maintained in DFM until 12 h AM (5h). […] As previously, the cells were maintained in DFM for 70 h in DFM after DTX treatment.
PC3 survival was determined at the end of treatment 1 and 3. Telomerase activity was determined in survived cells by Trap assay at the end of treatment 1, 2 and 3.

Data set [1] can be described thus: Blood levels after administration. It is filed as in vivo. The settings on record: human. The protocol:
It was deduced from the investigator data that 1 h after administration of 75 mg/m2 of DTX, blood levels of DTX can reach 3.75 μM.

Turning to `CC(=O)O[C@@]12CO[C@@H]1C[C@H](O)[C@@]1(C)C(=O)[C@H](O)C3=C(C)[C@@H](OC(=O)[C@H](O)[C@@H](NC(=O)OC(C)(C)C)c4ccccc4)C[C@@](O)([C@@H](OC(=O)c4ccccc4)[C@H]21)C3(C)C` [Docetaxel, (2R,3S)-N-carboxy-3-phenylisoserine, N-tert-butyl ester, 13-ester with 5, 20-epoxy-1,2,4,7, 10, 13-hexahydroxytax-11-en-9-one 4-acetate 2-benzoate, trihydrate], in the data set with patients with HRPC, the PSA response is reported as 45% and the objective tumor response is given as 12%. Further, the “number of survived cells” value in the data set on PC3 cells was found to be 90±5%. For the same molecule, in data set [1] (blood, intravenous, 1 h after administration of 75 mg/m2, deduced from the investigator data, read-out: blood levels of DTX), the concentration at 1 h came out at 3750 nM.
For the molecule `COc1cc(/C=C/C(=O)CC(=O)/C=C/c2ccc(O)c(OC)c2)ccc1O` [curcumin, (1E,6E)-1,7-bis (4-hydroxy-3-methoxyphenyl)-1,6-heptadiene-3 ,5-dione], the concentration at 1 h in data set [1] (in vivo) fell in the range of 100 to 450 nM.
